The source of these data is patent publication US10899738B2 (THE REGENTS OF THE UNIVERSITY OF MICHIGAN, priority 2016, dated 2021).

menin protein, sequence (O00255 whole entry): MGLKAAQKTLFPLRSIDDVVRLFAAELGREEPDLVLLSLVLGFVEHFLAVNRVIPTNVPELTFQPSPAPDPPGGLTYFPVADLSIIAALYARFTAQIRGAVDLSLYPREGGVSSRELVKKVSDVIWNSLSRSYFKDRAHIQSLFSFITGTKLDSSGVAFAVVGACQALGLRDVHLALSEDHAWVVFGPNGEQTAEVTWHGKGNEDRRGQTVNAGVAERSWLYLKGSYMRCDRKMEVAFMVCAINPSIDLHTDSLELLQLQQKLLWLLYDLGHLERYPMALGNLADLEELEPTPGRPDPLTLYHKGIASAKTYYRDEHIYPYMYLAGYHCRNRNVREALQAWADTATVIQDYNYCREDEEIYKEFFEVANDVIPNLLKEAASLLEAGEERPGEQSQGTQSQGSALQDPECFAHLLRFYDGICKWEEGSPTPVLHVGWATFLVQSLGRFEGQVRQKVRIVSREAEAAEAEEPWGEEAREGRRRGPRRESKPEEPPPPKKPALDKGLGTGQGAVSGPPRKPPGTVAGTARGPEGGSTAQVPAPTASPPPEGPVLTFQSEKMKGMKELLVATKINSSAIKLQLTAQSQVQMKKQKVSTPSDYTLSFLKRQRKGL

The first test concerns the target menin protein (Homo sapiens (Human), UniProt O00255). Put plainly: biochemical. The test is classed as binding. The note with it: FP competitive binding; menin protein 4 nM, FAM-MM2 probe 2 nM. How it is done:
A fluorescence polarization (FP) competitive binding assay was used to determine the binding affinities of representative menin inhibitors. A FAM labeled fluorescent probe was designed and synthesized based on a MLL1 peptide (FAM-MM2). Equilibrium dissociation constant (Kd) value of FAM-MM2 to menin protein was determined from protein saturation experiments by monitoring the total fluorescence polarization of mixtures composed with the fluorescent probe at a fixed concentration and the protein with increasing concentrations up to full saturation. Serial dilutions of the protein were mixed with FAM-MM2 to a final volume of 200 μl in the assay buffer (PBS with 0.02% Bovine γ-Globulin and 4% DMSO. 0.01% Triton X-100 was added right before assays). Final FAM-MM2 concentration was 2 nM. Plates were incubated at room temperature for 30 minutes with gentle shaking to assure equilibrium.
The IC50, see Table 3, and Ki values of representative Compounds of the Disclosure were determined in a competitive binding experiment. Mixtures of 5 μl of the tested compounds in DMSO and 195 μl of preincubated protein/probe complex solution in the assay buffer were added into assay plates which were incubated at room temperature for 30 minutes with gentle shaking. Final concentration of the menin protein was 4 nM, and final probe concentration is 2 nM. […] FP values were measured as described above. IC50 values were determined by nonlinear regression fitting of the competition curves.
Turning to `CCN1Cc2ccccc2C(C2CCCC2)(C2CCN(Cc3ccccc3Oc3ccc(C#N)cc3)CC2)C1` (stereo not drawn) [compound 163, 4-(2-((4-(4-cyclopentyl-2-ethyl-1,2,3,4-tetrahydroisoquinolin-4-yl)piperidin-1-yl)methyl)phenoxy)benzonitrile], the “Menin Binding Affinity IC50 (μM)” value is listed as “No inhibition”.

As for `N#Cc1ccc(OCCCN2CC(C3(C4CCCC4)NCCc4ccccc43)C2)cc1` (stereo not drawn) [compound 60, 4-(3-(3-(1-cyclopentyl-1,2,3,4-tetrahydroisoquinolin-1-yl)azetidin-1-yl)propoxy)benzonitrile], the “Menin Binding Affinity IC50 (μM)” value is recorded as “No inhibition”.

Staying with this test, now noted: FP competitive binding; menin protein 4 nM, FAM-MM2 probe 2 nM; read-out: Menin Binding Affinity IC50.
In the case of `CCS(=O)(=O)c1ccc(N2CC(C(=O)N3CCC(C4(C5CCCC5)NCCc5c(F)cccc54)CC3)C2)cc1` (stereo not drawn) [compound 116, (4-(1-cyclopentyl-5-fluoro-1,2,3,4-tetrahydroisoquinolin-1-yl)piperidin-1-yl)(1-(4-(ethylsulfonyl)phenyl)azetidin-3-yl)methanone], the half-inhibitory concentration (IC50) (usually the concentration at which inhibition is half-maximal) turned out to be 6 µM.

For the molecule `CC(=O)O[C@H]1CCC[C@@H]1C(C#N)(c1ccccc1F)C1CCN(CC2CN(c3ccc(S(=O)(=O)C4CC4)cc3)C2)CC1` (mixture of isomers) [compound 310, rac-(1S,2R)-2-(cyano(1-((1-(4-(cyclopropylsulfonyl)phenyl)azetidin-3-yl)methyl)piperidin-4-yl)(2-fluorophenyl)methyl) cyclopentyl acetate], the IC50 turned out to be 0.045 µM.

`O=C(CN1CCC(C2(C3CCCC3)NCCc3ccccc32)CC1)N1Cc2ccccc2C1` (stereo not drawn) [compound 82, 2-(4-(1-cyclopentyl-1,2,3,4-tetrahydroisoquinolin-1-yl)piperidin-1-yl)-1-(isoindolin-2-yl)ethan-1-one]: the IC50 stood at 6.2 µM.

`CC(=O)O[C@H]1CCC[C@@H]1C(C#N)(c1ccccc1F)C1CCN(CCCOc2ccc(C#N)cc2)CC1` (mixture of isomers) [compound 308, rac-(1S,2R)-2-(cyano(1-(3-(4-cyanophenoxy)propyl)piperidin-4-yl)(2-fluorophenyl)methyl)cyclopentyl acetate]: the IC50 came out at 0.066 µM.

As to `N#Cc1cc2ccc(C(=O)N[C@H]3CC[C@H](C4(C5CCCC5)NCCc5ccccc54)CC3)cc2[nH]1` (stereo partly drawn) [compound 81, 2-cyano-N-((1r,4r)-4-(1-cyclopentyl-1,2,3,4-tetrahydroisoquinolin-1-yl)cyclohexyl)-1H-indole-6-carboxamide], the IC50 amounted to 1.9 µM.

As to `COC(=O)[C@@H]1CCC[C@H]1C(C#N)(c1ccccc1)C1CCN(CC2CN(c3ccc(S(=O)(=O)C4CC4)cc3)C2)CC1` (mixture of isomers) [compound 333, methyl rac-(1R,2R)-2-(cyano(1-((1-(4-(cyclopropylsulfonyl)phenyl)azetidin-3-yl)(phenyl)methyl)cyclopentane-1-carboxylate], the IC50 is 5.1 µM.

For `CNC(=O)O[C@@H]1CCC[C@H]1C(C#N)(c1ccccc1)C1CCN(CC2CN(c3ccc([N+](=O)[O-])cc3)C2)CC1` (mixture of isomers) [compound 384, rac-(1R,2S)-2-(cyano(1-((1-(4-nitrophenyl)azetidin-3-yl)methyl)piperidin-4-yl)(phenyl)methyl)cyclopentyl methylcarbamate], the IC50 worked out at 4.6 µM.

Regarding `N#Cc1cc2ccc(C(=O)N3CCC(CC4(C5CCCC5)NCCc5ccccc54)CC3)cc2[nH]1` (stereo not drawn) [compound 118, 6-(4-((1-cyclopentyl-1,2,3,4-tetrahydroisoquinolin-1-yl)methyl)piperidine-1-carbonyl)-1H-indole-2-carbonitrile], the IC50 came out at 21.8 µM.

In the case of `O=S(=O)(c1ccncc1)c1ccc(N2CC(CN3CCC(C4(C5CCCC5)CN(CCN5CCOCC5)Cc5ccccc54)CC3)C2)cc1` (stereo not drawn) [compound 54, 4-(2-(4-cyclopentyl-4-(1-((1-(4-(pyridin-4-ylsulfonyl)phenyl)azetidin-3-yl)methyl)piperidin-4-yl)-3,4-dihydroisoquinolin-2(1H)-yl)ethyl)morpholine], the IC50 came out at 0.011 µM.

With `CCc1cc(S(=O)(=O)c2ccc(N3CC(CN4CCC(C5(C6CCCC6)CN(CC)Cc6ccccc65)CC4)C3)cc2)ccn1` (stereo not drawn) [compound 155, 4-cyclopentyl-2-ethyl-4-(1-((1-(4-((2-ethylpyridin-4-yl)sulfonyl)phenyl)azetidin-3-yl)methyl)piperidin-4-yl)-1,2,3,4-tetrahydroisoquinoline], the IC50 was determined as 0.016 µM.

As for `N#Cc1ccc(OC2CC(N3CCC(C4(C5CCCC5)NCCc5ccccc54)CC3)C2)cc1` (single isomer, unassigned) [compound 130, 4-((1s,3s)-3-(4-(1-cyclopentyl-1,2,3,4-tetrahydroisoquinolin-1-yl)piperidin-1-yl)cyclobutoxy)benzonitrile], the concentration for half-maximal inhibition (IC50) worked out at 10.6 µM.

As to `N#Cc1ccc(OCCCN2CCC(CC3(C4CCCC4)NCCc4ccccc43)CC2)cc1` (stereo not drawn) [compound 104, 4-(3-(4-((1-cyclopentyl-1,2,3,4-tetrahydroisoquinolin-1-yl)methyl)piperidin-1-yl)propoxy)benzonitrile], the IC50 turned out to be 32.7 µM.

For the molecule `CO[C@@H]1CCC[C@H]1C1(C2CCN(CCCOc3ccc(C(=O)O)cc3)CC2)CNCc2ccccc21` (mixture of isomers) [compound 327, rac-4-(3-(4-(4-((1S,2R)-2-methoxycyclopentyl)-1,2,3,4-tetrahydroisoquinolin-4-yl)piperidin-1-yl)propoxy)benzoic acid], the IC50 was 485 µM.

As to `N#Cc1ccc(OCCCCN2CC(C3(C4CCCC4)NCCc4ccccc43)C2)cc1` (stereo not drawn) [compound 62, 4-(4-(3-(1-cyclopentyl-1,2,3,4-tetrahydroisoquinolin-1-yl)azetidin-1-yl)butoxy)benzonitrile], the concentration for half-maximal inhibition (IC50) turned out to be 36.2 µM.

With `N#Cc1ccc(OCCCN2CCC(C(C#N)(CC(=O)N3CCCC3)c3ccccc3)CC2)cc1` (stereo not drawn) [compound 306, 4-(3-(4-(1-cyano-3-oxo-1-phenyl-3-(pyrrolidin-1-yl)propyl)piperidin-1-yl)propoxy)benzonitrile], the IC50 is 40 µM.

As for `COC(=O)N[C@@H]1CCC[C@H]1C(C#N)(c1ccccc1)C1CCN(CC2CN(c3ccc(S(=O)(=O)c4ccc(C(=O)O)cc4)cc3)C2)CC1` (mixture of isomers) [compound 352, rac-4-((4-(3-((4-(cyano((1S,2R)-2-((methoxycarbonyl)amino)cyclopentyl)(phenyl)methyl)piperidin-1-yl)methyl)azetidin-1-yl)phenyl)sulfonyl)benzoic acid], the concentration for half-maximal inhibition (IC50) is 2.7 µM.

With `N#CC(c1ccccc1)(C1CCN(CC2CN(c3ccc(S(=O)(=O)c4ccncc4)cc3)C2)CC1)[C@@H]1CCC[C@H]1OC(=O)C1CCC1` (mixture of isomers) [compound 208, rac-(1R,2S)-2-(cyano(phenyl)(1-((1-(4-(pyridin-4-ylsulfonyl)phenyl)azetidin-3-yl)methyl)piperidin-4-yl)methyl)cyclopentyl cyclobutanecarboxylate], the IC50 was found to be 0.435 µM.

As to `CC(=O)O[C@@H]1CCC[C@H]1C(C#N)(c1cccc(F)c1)C1CCN(CC2CN(c3ccc(C#N)cc3)C2)CC1` (mixture of isomers) [compound 416, rac-(1R,2S)-2-(cyano(1-((1-(4-cyanophenyl)azetidin-3-yl)methyl)piperidin-4-yl)(3-fluorophenyl)methyl) cyclopentyl acetate], the IC50 was 3.28 µM.

As for `N#Cc1ccc(OC2CC(N3CCC(C4(C5CCCC5)NCCc5ccccc54)CC3)C2)cc1` (single isomer, unassigned) [compound 131, 4-((1r,3r)-3-(4-(1-cyclopentyl-1,2,3,4-tetrahydroisoquinolin-1-yl)piperidin-1-yl)cyclobutoxy)benzonitrile], the IC50 was determined as 1.1 µM.

Turning to `CNC(=O)O[C@@H]1CCC[C@H]1C(C#N)(c1ccccc1)C1CCN(C2CCN(c3ccc(S(=O)(=O)c4ccccc4)cc3)CC2)CC1` (mixture of isomers) [compound 235, rac-(1R,2S)-2-(cyano(phenyl)(1′-(4-(phenylsulfonyl)phenyl)-[1,4′-bipiperidin]-4-yl)methyl)cyclopentyl methylcarbamate], the IC50 is 6.2 µM.

Regarding `CNC(=O)O[C@@H]1CCC[C@H]1C(CN1CCCC1)(c1ccccc1)C1CCN(CC2CN(c3ccc(S(=O)(=O)c4ccccc4)cc3)C2)CC1` (mixture of isomers) [compound 360, rac-(1R,2S)-2-(1-phenyl-1-(1-((1-(4-(phenylsulfonyl)phenyl)azetidin-3-yl)methyl)piperidin-4-yl)-2-(pyrrolidin-1-yl)ethyl)cyclopentyl methylcarbamate], the IC50 turned out to be 1.4 µM.

`CCC(CC)CC1(C2CCN(CCCOc3ccc(C#N)cc3)CC2)NCCc2ccccc21` (stereo not drawn) [compound 252, 4-(3-(4-(1-(2-ethylbutyl)-1,2,3,4-tetrahydroisoquinolin-1-yl)piperidin-1-yl)propoxy)benzonitrile]: the IC50 turned out to be 1.2 µM.

As to `CN1CCC(C2(C3CCCC3)NCCc3ccccc32)CC1` (stereo not drawn) [compound 75, 1-cyclopentyl-1-(1-methylpiperidin-4-yl)-1,2,3,4-tetrahydroisoquinoline], the IC50 is 142 µM.

`c1ccc2c(c1)CCNC2(C1CCCC1)C1CCNCC1` (stereo not drawn) [compound 72, 1-cyclopentyl-1-(piperidin-4-yl)-1,2,3,4-tetrahydroisoquinoline]: the IC50 was 610 µM.

Take `CNC(=O)N[C@@H]1CCC[C@H]1C(CN)(c1ccccc1)C1CCN(CC2CN(c3ccc(S(=O)(=O)c4ccccc4)cc3)C2)CC1` (mixture of isomers) [compound 322, rac-1-((1R,2S)-2-(2-amino-1-phenyl-1-(1-((1-(4-(phenylsulfonyl)phenyl)azetidin-3-yl)methyl)piperidin-4-yl)ethyl)cyclopentyl)-3-methylurea]: the IC50 stood at 0.108 µM.
